Laboratory results from patent US20260373136A1, “A NOVEL DOSAGE REGIMEN USING LOW DOSES OF DONEPEZIL OR DERIVATIVE THEREOF FOR PREVENTING OR TREATING A COMPULSIVE DISORDER” (SORBONNE UNIVERSITE, priority 2022, published 2026).
Read-outs that look alike come from different tables or passages of the source.

What was measured:
[1] = Eating Disorder Examination Questionnaire (EDE-q) before and after treatment; assay type: in vivo, human; parameters: scale not given here; conditions: >=4 clinical range, >2.8 possible clinically significant pathology
Description: (§1) 6 anorexic patients were treated with donepezil: 5 of them with a daily dose according to the present invention and 1 with a higher dose (comparative).
(§2) The studies were led in hospital. Each case is presented below.
(§3) The treatment started with a daily dose of donepezil of 0.5 mg for 13 days then the daily dose was increased to 0.75 mg for 9 days then increased to 1 mg for 17 days and then increased to 1.5 mg and remained at this dosage for a month then stopped for two months and then restarted with a daily dose of 1.5 mg that remains within 1 month and then discontinued.
The eating disorders of patient #4 before and after treatment have been evaluated with the Eating Disorder Examination Questionnaire (EDE-q) (available on https://www.corc.uk.net/outcome-experience-measures/eating-disorder-examination-questionnaire-ede-q/) which has given the following results:
(§4) The treatment started with a daily dose of donepezil of 0.5 mg for 8 days and then the daily dose was increased to 1 mg for 9 days and then increased to 1.67 mg for 62 days and then increased to 2.5 mg.
The eating disorders of patient #6 before and after treatment have been evaluated with EDE-q questionnaire which has given the following results: […]

[2] = Generalized Anxiety Disorders Assessment (GAD-7) questionnaire before and after treatment; assay type: in vivo, human; conditions: for anxiety: GAD-7 post vs pre-treatment; for General anxiety disorder (GAD-7) score, post treatment: 5-9 mild, 10-14 moderate, 15-21 severe anxiety
Description: as §1, §2
(§5) The treatment started with a daily dose of donepezil of 0.5 mg for 10 days then the daily dose was increased to 1 mg for 7 days then increased to 1.5 mg for 71 days (2 months and 10 days) then increased to 2 mg for 22 days and then increased to 2.5 mg and remains on this dose for 4 months and 18 days.
Patient #2 anxiety has also been evaluated with Generalized Anxiety Disorders Assessment (GAD-7) questionnaire (available on https://adaa.org/sites/default/files/GAD-7_Anxiety-updated_O.pdf) before and after the treatment. The following scores have been obtained:
The score obtained with questionary GAD-7 is classified as follows: • 5-9: mild anxiety; 10-14: moderate anxiety; 15-21: severe anxiety
as §3
Patient #4 anxiety has also been evaluated with questionnaire GAD-7 before and after the treatment. The following scores have been obtained:
as §4
Patient #6 anxiety has also been evaluated with questionnaire GAD-7 before and after the treatment. The following scores have been obtained:
The score obtained with questionnaire GAD-7 is classified as follows: • 5-9: mild anxiety; 10-14: moderate anxiety; 15-21: severe anxiety

[3] = Body weight / BMI of anorexic patients treated with donepezil; assay type: in vivo, human
Description: The term “Body Mass Index” (BMI) is calculated by dividing the body mass of an individual (in kg) by his height (in […]). The BMI is generally used to evaluate if an individual suffers from under nutrition or on the contrary if he/she suffers from overweight or obesity.
as §1, §2
Patient #2 is a person who developed anorexia nervosa restricting type in adolescence. They were very restricted in the types of food they ate and could not eat food that was processed or high in sugar or fats. They exercised 3-4 hours a day. They were unable to reduce their exercising even minimally […] becoming flooded with debilitating anxiety. They were unable to eat enough to maintain a healthy weight. Their BMI was 18.5 kg/m^2 and was medically stable when they started donepezil.
as §5, §3
A patient who has suffered from anorexia nervosa during their second pregnancy. They have been vigilant about their caloric intake and body image since their adolescence. […] The symptomatology is dominated by qualitative and quantitative food restriction and physical hyperactivity. […] Neurocognitive executive functions are preserved, there is a high tolerance of delayed reward measured by Delay Discounting Task. […]

AChE = conditions: background statement; cited from earlier work
[4] = Patient Health Questionnaire (PHQ-9) before and after treatment; assay type: in vivo, human; conditions: for depression symptoms: PHQ-9 post vs pre-treatment; for Patient Health Questionnaire (PHQ-9) score, post treatment: 5-9 mild, 10-14 moderate, 15-19 moderately severe, 20-27 severe depression
Description: as §1, §2, §5
Patient #2 depression symptoms have also been evaluated with Patient Health Questionnaire (PHQ-9) (available on https://med.stanford.edu/fastlab/research/imapp/msrs/_jcr_content/main/accordion/accor dion_content3/download_256324296/file.res/PHQ9%20id%20date%2008.03.pdf) before and after the treatment. The following scores have been obtained:
The score obtained with questionnaire PHQ-9 is classified as follows: • 5-9: mild depression; 10-14: moderate depression; 15-19: moderately severe depression; • 20-27: severe depression
as §3
Patient #4 depression symptoms have also been evaluated with questionnaire PHQ-9 before and after the treatment. The following scores have been obtained:
The score obtained with questionnaire PHQ-9 is classified as follows: • 5-9: mild depression; 10-14: moderate depression; 15-19: moderately severe depression; 20-27: severe depression
as §4
Patient #6 depression symptoms have also been evaluated with questionnaire PHQ-9 before and after the treatment.

[5] = Patient #6, daily dose 0.5 mg to 2.5 mg, pre-treatment 3.8
[6] = Patient #2, daily dose 0.5-2.5 mg
[7] = Patient #4, daily dose 0.5 to 1.5 mg
[8] = Patient #6, daily dose 0.5 mg to 2.5 mg

## COc1cc2c(cc1OC)C(=O)C(CC1CCN(Cc3ccccc3)CC1)C2 (centres unmarked) [donepezil]
[1]; Patient #4, daily dose 0.5 to 1.5 mg, pre-treatment 4
  EDE-q Restraint score, post treatment: 2
[1]; Patient #4, daily dose 0.5 to 1.5 mg, pre-treatment 4.6
  EDE-q Eating concerns score, post treatment: 2.2
[1]; Patient #4, daily dose 0.5 to 1.5 mg, pre-treatment 4.9
  EDE-q Global scores, post treatment: 3.0
[1]; Patient #4, daily dose 0.5 to 1.5 mg, pre-treatment 5.4
  EDE-q Weight concerns score, post treatment: 3.4
[1]; Patient #4, daily dose 0.5 to 1.5 mg, pre-treatment 5.8
  EDE-q Shape concerns score, post treatment: 4.4
[1]; Patient #6, daily dose 0.5 mg to 2.5 mg, pre-treatment 0.6
  EDE-q Eating concerns score, post treatment: 0.4
[1]; Patient #6, daily dose 0.5 mg to 2.5 mg, pre-treatment 3.4
  EDE-q Global scores, post treatment: 2.6
[1]; [5]
  EDE-q Restraint score, post treatment: 2.8
  EDE-q Weight concerns score, post treatment: 3.2
[1]; Patient #6, daily dose 0.5 mg to 2.5 mg, pre-treatment 5.4
  EDE-q Shape concerns score, post treatment: 4.1
[2]; [6]
  anxiety: diminution of their anxiety
[2]; Patient #2, daily dose 0.5-2.5 mg, pre-treatment score 16
  General anxiety disorder (GAD-7) score, post treatment: 12
[2]; [7]
  anxiety: diminution of their anxiety
[2]; Patient #4, daily dose 0.5 to 1.5 mg, pre-treatment score 16
  General anxiety disorder (GAD-7) score, post treatment: 9
[2]; [8]
  anxiety: strong diminution of their anxiety
[2]; Patient #6, daily dose 0.5 mg to 2.5 mg, pre-treatment score 15
  General anxiety disorder (GAD-7) score, post treatment: 3
Other patients (#2-#6), 0.5-2.5 mg PO OD (conclusion)
  improvement and severe side effects: improved without severe side effects
Patient #1 (comparative), 5 mg daily per os, in local emergency department, previously normal 120/70 mmHg, no other cause found, donepezil discontinued
  blood pressure: 183/124
Patient #1 (comparative), 5 mg daily per os, within 5 days, responded to over-the-counter pain medications
  side-effects: drowsiness and headaches
Patient #1 (comparative), 5 mg daily per os, within a week, previously normal 120/70 mmHg
  blood pressure: 175/120
Patient #1 (comparative), next few weeks after discontinuing donepezil (5 mg daily), previously normal 120/70 mmHg
  blood pressure: 140/95
Patient #1, 5 mg PO OD (conclusion)
  severe side effect: severe side effect (high blood pressure and severe headache)
[6]
  blood pressure: remained unaffected
  other side-effects: no other side-effects
Low dose between 0.5 and 2.5 mg/day, clinical cases overall (conclusion)
  side effects: without causing any side effects
[3]; Patient #2, daily dose 0.5-2.5 mg, over the next 5 months, BMI 18.5 kg/m^2 at start, maintained
  BMI: over 20 kg/m^2
[3]; Patient #4, daily dose 1.5 mg, within a month, BMI plateaued after rise to 15 kg/m^2 before treatment
  BMI: 15.6 kg/m^2
[3]; Patient #5, 2.5 mg per day for 2 months, from 27 kg, in 3 months
  body weight: 36 kg
AChE
  inhibition of AChE: reversible and selective inhibitor of AChE
[4]; [6]
  depression symptoms: diminution of their depression symptoms
[4]; Patient #2, daily dose 0.5-2.5 mg, pre-treatment score 10
  Patient Health Questionnaire (PHQ-9) score, post treatment: 4
[4]; [7]
  depression symptoms: diminution of their depression symptoms
[4]; Patient #4, daily dose 0.5 to 1.5 mg, pre-treatment score 17
  Patient Health Questionnaire (PHQ-9) score, post treatment: 5
[4]; [8]
  depression symptoms: diminution of their depression symptoms
[4]; Patient #6, daily dose 0.5 mg to 2.5 mg, pre-treatment score 6
  Patient Health Questionnaire (PHQ-9) score, post treatment: 2
